# Patent publication US9789096B2, “Methods and compositions for selective and targeted cancer therapy” (Board of Regents of the University of Texas System, priority 2013, dated 2017)
# Tested on: H1819
# Experiment: Cell viability dose-response, H1819
# Type: cell-based, human
# Settings: Homo sapiens, NCI-H1819, Tables 3 and 4; read-out: IC50 (uM) vs indicated non-small cell lung cancer cell line H1819
# In short: (§1)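 Viability read as total ATP (Cell Titer Glo) following 4 days' compound exposure, with IC50 derived from dose-response curves. Duplicate 12-point series, top concentration 50 micromolar with 3-fold steps, on cells seeded at 15% confluence in RPMI-1640, 5% FBS, 2 mM L-glutamine.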
row,SMILES,IC50 [µM]
1,COC(=O)c1ccc(C(=O)Nc2nc3ccc(N)cc3s2)cc1 [SW001296-3],28.6
2,C#CCOc1ccc(C(=O)c2ccc(C(=O)Nc3nc4ccc(OC)cc4s3)cc2)cc1 [SW209049-1],21
3,C#CCNC(=O)c1ccc(C(=O)Nc2nc3ccccc3s2)cc1 [SW209082-1],45.5
4,O=C(c1ccccc1)c1ccc(NC(=O)c2nc3ccccc3s2)cc1 [SW209091-1],9.03
5,C#CCOC(=O)Nc1ccc(C(=O)Nc2nc3ccccc3s2)cc1 [SW209168-1],40.1

# Same assay, conditions: Homo sapiens, NCI-H1819; Table 8; 12-point dose-response starting at 50 micromolar
row,SMILES,AC50 [µM]
1,C#CCc1coc2cc(OCc3cnn(-c4ccccc4)c3)ccc2c1=O [SW209021-1],49.5
2,C=CCc1coc2cc(OCc3cnn(-c4ccccc4)c3)ccc2c1=O [SW209022-1],47.1
3,O=c1c(Cc2ccccn2)coc2cc(OCc3cnn(-c4ccccc4)c3)ccc12 [SW209187-1],49.5
4,O=c1c(Cc2ccncc2)coc2cc(OCc3cnn(-c4ccccc4)c3)ccc12 [SW209193-1],49.5
5,O=C1/C(=C/c2ccc(F)cc2)COc2cc(OCc3cnn(-c4ccccc4)c3)ccc21 [SW209194-1],49.5
6,O=C1/C(=C/c2ccccc2C(F)(F)F)COc2cc(OCc3cnn(-c4ccccc4)c3)ccc21 [SW209195-1],49.5
7,O=C1/C(=C/c2ccccc2F)COc2cc(OCc3cnn(-c4ccccc4)c3)ccc21 [SW209196-1],41
8,O=C1/C(=C/c2cccc(C(F)(F)F)c2)COc2cc(OCc3cnn(-c4ccccc4)c3)ccc21 [SW209197-1],21.8
9,O=C1/C(=C/c2ccc(C(F)(F)F)cc2)COc2cc(OCc3cnn(-c4ccccc4)c3)ccc21 [SW209198-1],49.5
10,Cc1ccc(/C=C2\COc3cc(OCc4cnn(-c5ccccc5)c4)ccc3C2=O)cc1 [SW209199-1],39.5
11,Cc1ccccc1/C=C1\COc2cc(OCc3cnn(-c4ccccc4)c3)ccc2C1=O [SW209200-1],49.5
12,O=C(CCc1ccc(Br)cc1)Cn1ccnc1 [SW209201-1],49.5

# Same assay, conditions: Tables 3 and 4; read-out: IC50 (uM) vs indicated non-small cell lung cancer cell line H1819
row,SMILES,IC50 [µM]
1,C#CCOc1ccc(C(=O)c2ccc(C(=O)Nc3nc4ccc(OC)cc4s3)cc2)cc1 [SW209049-2],21

# Tested on: H2009
# Experiment: Cell viability dose-response, H2009
# Type: cell-based, human
# Settings: Homo sapiens, NCI-H2009, Table 8; 12-point dose-response starting at 50 micromolar
# Description: (§2) FIG. 6A. […] Cell viability is plotted vs. compound concentration. Compound was added to cells plated at 15% confluence in 96-well plates in RPMI-1640 media supplemented with 5% Fetal Bovine Serum and 2 mM L-Glutamine. After 4 days of incubation, ATP levels were measured using Cell Titer Glo (Promega). Data are presented as the average of 2 replicates ±SEM.
# (§3) Selectivity may be measured by the half maximal inhibitory concentration (IC50), which, as used herein, is a measure of the effectiveness of a compound in killing cells. This quantitative measure indicates how much of a particular compound is needed to kill a particular cell population by half (e.g., as indicated by the amount of ATP). […] The IC50 can be determined by constructing a dose-response curve. The lower the IC50, the higher the potency, and the greater the difference between IC50 values for different cell lines (e.g., sensitive lines vs. insensitive lines, and sensitive lines vs. normal lines) the greater the selectivity. […]
# (§4) With this information, we synthesized and tested a series of small molecules derived in conception from the oxalamide and chromone scaffold including N-acyl ureas, as shown in Tables 6-8. Each compound was tested in a 12-point dose-response study starting at 50 micromolar and decreasing in 3-fold increments to sub-nanomolar concentrations, in duplicate. Additionally, one or more additional cell line was tested in the same way.
row,SMILES,AC50 [µM]
1,O=c1c(C2CC2)coc2cc(OCc3cnn(-c4ccccc4)c3)ccc12 [SW208766-1],49.5
2,COc1ccc(-c2coc3cc(OCc4cnn(-c5ccccc5)c4)ccc3c2=O)c(C)c1 [SW208767-1],49.5
3,O=c1c(C#Cc2ccccc2)coc2cc(OCc3cnn(-c4ccccc4)c3)ccc12 [SW208768-1],19.9
4,O=c1c(Cc2ccccc2)coc2cc(OCc3cnn(-c4ccccc4)c3)ccc12 [SW208769-1],49.5
5,Cn1ccc(=O)c2ccc(OCc3cnn(-c4ccccc4)c3)cc21 [SW208832-1],7.51

# Tested on: H2073
# Experiment: Cell viability dose-response, H2073
# Type: cell-based, human
# Settings: Homo sapiens, NCI-H2073, Tables 3 and 4; read-out: IC50 (uM) vs indicated non-small cell lung cancer cell line H2073
# Description: as §2, §3, §4
row,SMILES,IC50 [µM]
1,C#CCNC(=O)c1ccc(C(=O)Nc2nc3ccccc3s2)cc1 [SW209082-1],45.5
2,O=C(c1ccccc1)c1ccc(NC(=O)c2nc3ccccc3s2)cc1 [SW209091-1],24
3,C#CCOC(=O)Nc1ccc(C(=O)Nc2nc3ccccc3s2)cc1 [SW209168-1],39.2

# Same assay, conditions: Homo sapiens, NCI-H2073; Table 8; 12-point dose-response starting at 50 micromolar
row,SMILES,AC50 [µM]
1,C#CCc1coc2cc(OCc3cnn(-c4ccccc4)c3)ccc2c1=O [SW209021-1],49.5
2,C=CCc1coc2cc(OCc3cnn(-c4ccccc4)c3)ccc2c1=O [SW209022-1],49.5
3,O=c1c(Cc2ccccn2)coc2cc(OCc3cnn(-c4ccccc4)c3)ccc12 [SW209187-1],49.5
4,O=c1c(Cc2ccncc2)coc2cc(OCc3cnn(-c4ccccc4)c3)ccc12 [SW209193-1],49.5
5,O=C1/C(=C/c2ccc(F)cc2)COc2cc(OCc3cnn(-c4ccccc4)c3)ccc21 [SW209194-1],49.5
6,O=C1/C(=C/c2ccccc2C(F)(F)F)COc2cc(OCc3cnn(-c4ccccc4)c3)ccc21 [SW209195-1],0.39
7,O=C1/C(=C/c2ccccc2F)COc2cc(OCc3cnn(-c4ccccc4)c3)ccc21 [SW209196-1],49.5
8,O=C1/C(=C/c2cccc(C(F)(F)F)c2)COc2cc(OCc3cnn(-c4ccccc4)c3)ccc21 [SW209197-1],26
9,O=C1/C(=C/c2ccc(C(F)(F)F)cc2)COc2cc(OCc3cnn(-c4ccccc4)c3)ccc21 [SW209198-1],49.5
10,Cc1ccc(/C=C2\COc3cc(OCc4cnn(-c5ccccc5)c4)ccc3C2=O)cc1 [SW209199-1],36.1
11,Cc1ccccc1/C=C1\COc2cc(OCc3cnn(-c4ccccc4)c3)ccc2C1=O [SW209200-1],49.5
12,O=C(CCc1ccc(Br)cc1)Cn1ccnc1 [SW209201-1],49.5

# Same assay, conditions: Tables 3 and 4; read-out: IC50 (uM) vs indicated non-small cell lung cancer cell line H2073
row,SMILES,IC50 [µM]
1,COC(=O)c1ccc(C(=O)Nc2nc3ccc(N)cc3s2)cc1 [SW001296-3],49.5
2,C#CCOc1ccc(C(=O)c2ccc(C(=O)Nc3nc4ccc(OC)cc4s3)cc2)cc1 [SW209049-1],81
3,C#CCOc1ccc(C(=O)c2ccc(C(=O)Nc3nc4ccc(OC)cc4s3)cc2)cc1 [SW209049-2],18

# Tested on: H2122
# Experiment: Cell viability dose-response, H2122
# Type: cell-based, human
# Settings: Homo sapiens, NCI-H2122, Table 8; 12-point dose-response starting at 50 micromolar
# In short: as §1
row,SMILES,AC50 [µM]
1,O=c1c(C2CC2)coc2cc(OCc3cnn(-c4ccccc4)c3)ccc12 [SW208766-1],16.5
2,COc1ccc(-c2coc3cc(OCc4cnn(-c5ccccc5)c4)ccc3c2=O)c(C)c1 [SW208767-1],2.07
3,O=c1c(C#Cc2ccccc2)coc2cc(OCc3cnn(-c4ccccc4)c3)ccc12 [SW208768-1],24.8
4,O=c1c(Cc2ccccc2)coc2cc(OCc3cnn(-c4ccccc4)c3)ccc12 [SW208769-1],0.027
5,Cn1ccc(=O)c2ccc(OCc3cnn(-c4ccccc4)c3)cc21 [SW208832-1],7.56
6,C#CCc1coc2cc(OCc3cnn(-c4ccccc4)c3)ccc2c1=O [SW209021-1],0.846
7,C=CCc1coc2cc(OCc3cnn(-c4ccccc4)c3)ccc2c1=O [SW209022-1],0.323
8,O=c1c(Cc2ccccn2)coc2cc(OCc3cnn(-c4ccccc4)c3)ccc12 [SW209187-1],0.28
9,O=c1c(Cc2ccncc2)coc2cc(OCc3cnn(-c4ccccc4)c3)ccc12 [SW209193-1],0.549
10,O=C1/C(=C/c2ccc(F)cc2)COc2cc(OCc3cnn(-c4ccccc4)c3)ccc21 [SW209194-1],0.876
11,O=C1/C(=C/c2ccccc2C(F)(F)F)COc2cc(OCc3cnn(-c4ccccc4)c3)ccc21 [SW209195-1],0.085
12,O=C1/C(=C/c2ccccc2F)COc2cc(OCc3cnn(-c4ccccc4)c3)ccc21 [SW209196-1],0.827
13,O=C1/C(=C/c2cccc(C(F)(F)F)c2)COc2cc(OCc3cnn(-c4ccccc4)c3)ccc21 [SW209197-1],0.042
14,O=C1/C(=C/c2ccc(C(F)(F)F)cc2)COc2cc(OCc3cnn(-c4ccccc4)c3)ccc21 [SW209198-1],1.44
15,Cc1ccc(/C=C2\COc3cc(OCc4cnn(-c5ccccc5)c4)ccc3C2=O)cc1 [SW209199-1],43.7
16,Cc1ccccc1/C=C1\COc2cc(OCc3cnn(-c4ccccc4)c3)ccc2C1=O [SW209200-1],0.874
17,O=C(CCc1ccc(Br)cc1)Cn1ccnc1 [SW209201-1],≥ 49.5

# Same assay, conditions: Homo sapiens, NCI-H2122, Tables 3 and 4; read-out: IC50 (uM) vs indicated non-small cell lung cancer cell line H2122
row,SMILES,IC50 [µM]
1,C#CCOc1ccc(C(=O)c2ccc(C(=O)Nc3nc4ccc(OC)cc4s3)cc2)cc1 [SW209049-1],0.131
2,C#CCNC(=O)c1ccc(C(=O)Nc2nc3ccccc3s2)cc1 [SW209082-1],0.1
3,O=C(c1ccccc1)c1ccc(NC(=O)c2nc3ccccc3s2)cc1 [SW209091-1],0.01
4,C#CCOC(=O)Nc1ccc(C(=O)Nc2nc3ccccc3s2)cc1 [SW209168-1],0.029

# Same assay, conditions: Tables 3 and 4; read-out: IC50 (uM) vs indicated non-small cell lung cancer cell line H2122
row,SMILES,IC50 [µM]
1,COC(=O)c1ccc(C(=O)Nc2nc3ccc(N)cc3s2)cc1 [SW001296-3],18.5
2,C#CCOc1ccc(C(=O)c2ccc(C(=O)Nc3nc4ccc(OC)cc4s3)cc2)cc1 [SW209049-2],0.131

# Tested on: HCC44
# Experiment: Cell viability dose-response, HCC44
# Type: cell-based, human
# Settings: Homo sapiens, HCC44, Table 8; 12-point dose-response starting at 50 micromolar
# Description: as §2, §3, §4
row,SMILES,AC50 [µM]
1,O=c1c(C2CC2)coc2cc(OCc3cnn(-c4ccccc4)c3)ccc12 [SW208766-1],49.5
2,COc1ccc(-c2coc3cc(OCc4cnn(-c5ccccc5)c4)ccc3c2=O)c(C)c1 [SW208767-1],4.06
3,O=c1c(C#Cc2ccccc2)coc2cc(OCc3cnn(-c4ccccc4)c3)ccc12 [SW208768-1],16.5
4,O=c1c(Cc2ccccc2)coc2cc(OCc3cnn(-c4ccccc4)c3)ccc12 [SW208769-1],3.18
5,Cn1ccc(=O)c2ccc(OCc3cnn(-c4ccccc4)c3)cc21 [SW208832-1],49.5
